From patent US20250152591A1, “TREATMENT OF HEMATOLOGICAL MALIGNANCIES WITH MENIN INHIBITORS AND P-GLYCOPROTEIN INHIBITORS” (Kura Oncology, Inc., priority 2022, published 2025)
Where two headings read alike, the source gives them in different places.

Experiments:
P-gp = P-gp (Homo sapiens, UniProt P08183); test: P-gp substrate assessment using MDR1-MDCK monolayers (Example 1, +/- valspodar); assay type: in vitro ADME; set-up: expressed in transfected cells; host or cells: MDR1-MDCK cells
Experimental: MDR1-MDCK cell monolayers were grown to confluence on collagen-coated, microporous membranes in 12-well assay plates. Details of the plates and their certification are shown below. The permeability assay buffer was Hanks' balanced salt solution (HBSS) containing 10 mM HEPES and 15 mM glucose at a pH of 7.4. The buffer in the receiver chamber also contained 1% bovine serum albumin. The dosing solution concentration was 5 μM of test article in the assay buffer+/−1 μM valspodar. Cells were first pre-incubated for 30 min with HBSS containing+/−1 μM valspodar. Cell monolayers were dosed on the apical side (A-to-B) or basolateral side (B-to-A) and incubated at 37° C. with 5% CO2 in a humidified incubator. Samples were taken from the donor and receiver chambers at 120 min. Each determination was performed in duplicate. The flux of lucifer yellow was also measured post-experimentally for each monolayer to ensure no damage was inflicted to the cell monolayers during the flux period. All samples were assayed by LC-MS/MS using electrospray ionization. Liquid chromatography conditions are summarized as follows: Column: Thermo BDS Hypersil C18 30×2.1 mm, […], with guard column; M.P. Buffer: 25 mM ammonium formate buffer, pH 3.5; Aqueous Reservoir (A): 90% water, 10% buffer; Organic Reservoir (B): 90% acetonitrile, 10% buffer; Flow Rate: 350 μL/minute; Total run time: 3.5 min; Autosampler: 10 μL injection volume; Autosampler wash: water/methanol/2-propanol: 1/1/1; with 0.2% formic acid.
The apparent permeability (Papp) and percent recovery were calculated as follows: […]
where, • dCr/dt is the slope of the cumulative concentration in the receiver compartment versus time in μM s^−1; • Vr is the volume of the receiver compartment in cm^3; • Vd is the volume of the donor compartment in cm^3; • A is the area of the insert (1.13 cm^2 for 12-well); • CA is the average of the nominal dosing concentration and the measured 120 minute donor concentration in μM; • CN is the nominal concentration of the dosing solution in μM; • Cr^final is the cumulative receiver concentration in μM at the end of the incubation period; • Cd^final is the concentration of the donor in μM at the end of the incubation period.
Efflux ratio (ER) is defined as Papp (B-to-A)/Papp (A-to-B).
• ER≥2.0 without valspodar, and reduced by ≥50% with valspodar: Positive • ER≥2.0 without valspodar, and reduced by <50% with valspodar: Negative • ER<2.0 without and with valspodar: Negative

MOLM13-PGP cell line = test: Cell viability assay, MOLM13-PGP; assay type: cell-based; set-up: unit of the concentration uncertain; conditions: 168 h, 7 days
Experimental: (§1) The effects described above were investigated in an AML cell line, MOLM-13, which carries a KA4T2A (MLL)-rearrangement mutation. The P-gp expressing MOLM-13 cell line (MOLM13-PGP) and the Luciferase expressing MOLM-13 cell line (MOLM13-Control) were established by lentivirally transducing P-gp ORF or Luciferase ORF. Cells were plated and treated with test compound for 7 days.

MOLM13-Control cell line = test: Cell viability assay, MOLM13-Control; assay type: cell-based; set-up: unit of the concentration uncertain; conditions: 168 h, 7 days
Experimental: as §1

[1] = tested on: OCI-AML3-Control cell line; test: Cell viability assay, OCI-AML3-Control; assay type: cell-based; set-up: unit of the concentration uncertain; conditions: 168 h, 7 days
Experimental: A third set of experiments was conducted in the cell line OCI-AML3, which carries the W288Cfs*12 mutation in NPM protein. The P-gp expressing OCI-AML3 cell line (OCI-AML3-PGP) and the Luciferase expressing OC-AML3 cell line (OCI-AML3-Control) were established by lentivirally transducing P-gp ORF or Luciferase ORF. Cells were treated with Compound I or SNDX-5613 for 7 days to assess the IC50 values.

Chain of P-gp (P08183 whole entry): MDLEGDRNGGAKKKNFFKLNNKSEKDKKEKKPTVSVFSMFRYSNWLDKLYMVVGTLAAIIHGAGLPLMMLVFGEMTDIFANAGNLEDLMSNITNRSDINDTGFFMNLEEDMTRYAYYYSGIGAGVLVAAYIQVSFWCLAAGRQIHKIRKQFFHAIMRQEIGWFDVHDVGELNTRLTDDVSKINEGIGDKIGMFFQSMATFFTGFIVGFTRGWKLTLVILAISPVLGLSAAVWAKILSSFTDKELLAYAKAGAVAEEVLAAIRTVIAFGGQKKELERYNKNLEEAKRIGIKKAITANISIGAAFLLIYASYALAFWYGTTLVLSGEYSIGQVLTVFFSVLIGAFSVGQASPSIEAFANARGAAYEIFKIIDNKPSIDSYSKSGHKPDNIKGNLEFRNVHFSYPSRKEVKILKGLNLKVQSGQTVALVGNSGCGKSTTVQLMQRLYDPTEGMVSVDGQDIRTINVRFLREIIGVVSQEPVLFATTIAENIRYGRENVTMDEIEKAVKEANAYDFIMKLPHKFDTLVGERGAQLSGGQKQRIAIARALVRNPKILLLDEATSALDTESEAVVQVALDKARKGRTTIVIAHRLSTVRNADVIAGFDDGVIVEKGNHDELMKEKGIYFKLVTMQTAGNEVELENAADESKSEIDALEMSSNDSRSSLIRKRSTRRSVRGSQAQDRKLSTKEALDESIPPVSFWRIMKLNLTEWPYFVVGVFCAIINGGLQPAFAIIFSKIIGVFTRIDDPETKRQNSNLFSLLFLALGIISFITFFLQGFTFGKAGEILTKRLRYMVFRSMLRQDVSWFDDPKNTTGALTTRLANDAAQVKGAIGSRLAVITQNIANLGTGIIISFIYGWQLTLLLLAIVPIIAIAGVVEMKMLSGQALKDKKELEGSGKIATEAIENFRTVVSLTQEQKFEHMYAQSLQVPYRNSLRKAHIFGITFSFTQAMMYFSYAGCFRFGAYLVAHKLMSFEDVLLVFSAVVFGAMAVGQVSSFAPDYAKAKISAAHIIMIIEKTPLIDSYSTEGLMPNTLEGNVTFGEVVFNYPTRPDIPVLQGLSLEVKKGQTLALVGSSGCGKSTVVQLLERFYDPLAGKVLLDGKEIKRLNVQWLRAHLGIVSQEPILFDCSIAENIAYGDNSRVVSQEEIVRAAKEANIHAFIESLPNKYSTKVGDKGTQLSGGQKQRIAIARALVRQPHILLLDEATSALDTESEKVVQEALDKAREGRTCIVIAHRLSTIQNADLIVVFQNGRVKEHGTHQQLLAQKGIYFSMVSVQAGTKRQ

Which results are given for CNc1nc(NC2CCN(Cc3ccc4c(cc(C#N)n4C[C@H](C)N4CCN(S(C)(=O)=O)CC4)c3C)CC2)c2cc(CC(F)(F)F)sc2n1 [Compound I]?
Papp Avg (P-gp; A-to-B, without valspodar): 0.09 10^−6 cm/s; P-gp substrate (P-gp; MDR1-MDCK cell monolayers): substrate of P-gp; P-gp Substrate Classification (P-gp; MDR1-MDCK, ER without and with valspodar): Positive (ER≥2.0 without valspodar, and reduced by ≥50% with valspodar); recovery at 120 min, 5 μM (P-gp; dog, MDCK-MDR1, pH 7.4, A-to-B, 5 μM test article, without valspodar): 70%; recovery at 120 min, 5 μM (P-gp; dog, MDCK-MDR1, pH 7.4, B-to-A, 5 μM test article, without valspodar): 83%; Papp B→A at 120 min, 5 μM (P-gp; dog, MDCK-MDR1, pH 7.4, B-to-A, without valspodar, read-out: Papp Avg): 9.41 ×10⁻⁶ cm/s; Papp B→A at 120 min, 5 μM (P-gp; dog, MDCK-MDR1, pH 7.4, B-to-A, without valspodar, read-out: Papp R1): 6.43 ×10⁻⁶ cm/s; Papp B→A at 120 min, 5 μM (P-gp; dog, MDCK-MDR1, pH 7.4, B-to-A, without valspodar, read-out: Papp R2): 9.21 ×10⁻⁶ cm/s; Papp B→A at 120 min, 5 μM (P-gp; dog, MDCK-MDR1, pH 7.4, B-to-A, without valspodar, read-out: Papp R3): 12.6 ×10⁻⁶ cm/s; recovery at 120 min, 5 μM (P-gp; dog, MDCK-MDR1, pH 7.4, with valspodar 1 μM, A-to-B, 5 μM test article + 1 μM valspodar): 53%; recovery at 120 min, 5 μM (P-gp; dog, MDCK-MDR1, pH 7.4, with valspodar 1 μM, B-to-A, 5 μM test article + 1 μM valspodar): 118%; Papp A→B at 120 min, 5 μM (P-gp; dog, MDCK-MDR1, pH 7.4, A-to-B, without valspodar): 0.09 ×10⁻⁶ cm/s; efflux ratio at 120 min, 5 μM (P-gp; dog, MDCK-MDR1, pH 7.4, Papp (B-to-A)/Papp (A-to-B), without valspodar): 105; IC50 (MOLM13-PGP cell line; Table 7, read-out: IC50 MOLM13-PGP (Compound + DMSO)): 65.7 nM; IC50 (MOLM13-PGP cell line; Table 8, read-out: IC50 MOLM13-PGP (Compound + DMSO)): 63.2 nM; IC50 (MOLM13-PGP cell line; posaconazole (1.5 (unit uncertain)), Table 7, read-out: IC50 MOLM13-PGP (Compound + posaconazole)): 19.2 nM; IC50 (MOLM13-PGP cell line; valspodar (1 (unit uncertain)), Table 8, read-out: IC50 MOLM13-PGP (Compound + valspodar)): 23 nM; IC50 (MOLM13-Control cell line; Table 7, read-out: IC50 MOLM13-Control (Compound + DMSO)): 23.7 nM; IC50 (MOLM13-Control cell line; Table 8, read-out: IC50 MOLM13-Control (compound + DMSO)): 27 nM; IC50 (MOLM13-Control cell line; posaconazole (1.5 (unit uncertain)), Table 7, read-out: IC50 MOLM13-Control (Compound + posaconazole)): 16.5 nM; IC50 (MOLM13-Control cell line; valspodar (1 (unit uncertain)), Table 8, read-out: IC50 MOLM13-Control (Compound + valspodar)): 22.3 nM; IC50 ([1]; Table 9, read-out: IC50 OCI-AML3-Control (Compound + DMSO)): 16.4 nM; IC50 ([1]; Table 10, read-out: IC50 OCI-AML3-Control (Compound + DMSO)): 15.3 nM; IC50 ([1]; posaconazole (0.75 (unit uncertain)), Table 9, read-out: IC50 OCI-AML3-Control (Compound + posaconazole)): 17.7 nM; IC50 ([1]; valspodar (1 (unit uncertain)), Table 10, read-out: IC50 OCI-AML3-Control (Compound + valspodar)): 19.2 nM
